Reference: PubChem BioAssay (NCI)
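Cells were grown in 96-well plates and exposed to each compound for 48 hours at five concentrations; endpoints were interpolated linearly between bracketing concentrations, or set to the highest concentration if not reached. Here, GI50 denotes the concentration required for 50% inhibition of growth. TGI denotes the concentration required for complete inhibition of growth.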

How the values were obtained:
Experiment in all cases: NCI tumour cell line growth inhibition, 48 h
PC-3 prostate = test system: PC-3 prostate
MOLT-4 leukemia = test system: MOLT-4 leukemia
SK-MEL-2 melanoma = test system: SK-MEL-2 melanoma
HOP-62 NSCLC = test system: HOP-62 NSCLC
IGROV1 ovarian = test system: IGROV1 ovarian
COLO 205 colon = test system: COLO 205 colon
HL-60(TB) leukemia = test system: HL-60(TB) leukemia
SF-268 CNS = test system: SF-268 CNS
BT-549 breast = test system: BT-549 breast
UO-31 renal = test system: UO-31 renal
EKVX NSCLC = test system: EKVX NSCLC
HCT-116 colon = test system: HCT-116 colon
U251 CNS = test system: U251 CNS
NCI-H23 lung = test system: NCI-H23 lung
DU-145 prostate = test system: DU-145 prostate
TK-10 renal = test system: TK-10 renal
UACC-257 melanoma = test system: UACC-257 melanoma
SW-620 colon = test system: SW-620 colon
MCF7 breast = test system: MCF7 breast
ACHN renal = test system: ACHN renal
NCI-H226 lung = test system: NCI-H226 lung
UACC-62 melanoma = test system: UACC-62 melanoma
SF-295 CNS = test system: SF-295 CNS
A498 renal = test system: A498 renal
KM12 colon = test system: KM12 colon
CCRF-CEM leukemia = test system: CCRF-CEM leukemia
MALME-3M melanoma = test system: MALME-3M melanoma
CAKI-1 renal = test system: CAKI-1 renal
SK-MEL-5 melanoma = test system: SK-MEL-5 melanoma
RPMI-8226 leukemia = test system: RPMI-8226 leukemia
LOX IMVI melanoma = test system: LOX IMVI melanoma
HS 578T breast = test system: HS 578T breast
NCI-H460 lung = test system: NCI-H460 lung
OVCAR-8 ovarian = test system: OVCAR-8 ovarian
OVCAR-5 ovarian = test system: OVCAR-5 ovarian
HCT-15 colon = test system: HCT-15 colon
SK-OV-3 ovarian = test system: SK-OV-3 ovarian
SR leukemia = test system: SR leukemia
SF-539 CNS = test system: SF-539 CNS
T-47D breast = test system: T-47D breast
SNB-19 CNS = test system: SNB-19 CNS
OVCAR-3 ovarian = test system: OVCAR-3 ovarian
M14 melanoma = test system: M14 melanoma
A549 NSCLC = test system: A549 NSCLC
786-0 renal = test system: 786-0 renal
NCI-H522 lung = test system: NCI-H522 lung
MDA-MB-231 breast = test system: MDA-MB-231 breast
NCI/ADR-RES ovarian = test system: NCI/ADR-RES ovarian
MDA-MB-435 = test system: MDA-MB-435
SN12C renal = test system: SN12C renal
K-562 leukemia = test system: K-562 leukemia

## O=S(=O)(CC#CCCCOCC#Cc1ccccc1C#CCS(=O)(=O)c1ccccc1)c1ccccc1
PC-3 prostate
  GI50: 20.4 µM
  TGI: 65.3 µM
MOLT-4 leukemia
  GI50: 2610 nM
  TGI: 5.9 µM
SK-MEL-2 melanoma
  GI50: 23 µM
  TGI: 47.9 µM
HOP-62 NSCLC
  GI50: 31.7 µM
  TGI: > 100 µM
IGROV1 ovarian
  GI50: 11.8 µM
  TGI: 25.7 µM
COLO 205 colon
  GI50: 72.3 µM
  TGI: > 100 µM
HL-60(TB) leukemia
  GI50: 21.8 µM
  TGI: 50.1 µM
SF-268 CNS
  GI50: 19.6 µM
  TGI: 50.1 µM
BT-549 breast
  GI50: 19 µM
  TGI: 34.8 µM
UO-31 renal
  GI50: 17.7 µM
  TGI: 35.4 µM
EKVX NSCLC
  GI50: > 100 µM
  TGI: > 100 µM
HCT-116 colon
  GI50: 16.2 µM
  TGI: 29.7 µM
U251 CNS
  GI50: 20.5 µM
  TGI: 41 µM
NCI-H23 lung
  GI50: 15.5 µM
  TGI: 44.8 µM
DU-145 prostate
  GI50: 44.5 µM
  TGI: > 100 µM
TK-10 renal
  GI50: > 100 µM
  TGI: > 100 µM
UACC-257 melanoma
  GI50: 14.9 µM
  TGI: 38.9 µM
SW-620 colon
  GI50: 28.6 µM
  TGI: > 100 µM
MCF7 breast
  GI50: 16.3 µM
  TGI: 35.3 µM
ACHN renal
  GI50: 24.3 µM
  TGI: 55 µM
NCI-H226 lung
  GI50: 16.6 µM
  TGI: 45.7 µM
UACC-62 melanoma
  GI50: 17.7 µM
  TGI: 39.7 µM
SF-295 CNS
  GI50: 29.8 µM
  TGI: 91.3 µM
A498 renal
  GI50: > 100 µM
  TGI: > 100 µM
KM12 colon
  GI50: 33.2 µM
  TGI: > 100 µM
CCRF-CEM leukemia
  GI50: 3.23 µM
  TGI: 10.2 µM
MALME-3M melanoma
  GI50: 20.6 µM
  TGI: 59.7 µM
CAKI-1 renal
  GI50: 13.3 µM
  TGI: 30.8 µM
SK-MEL-5 melanoma
  GI50: 15.3 µM
  TGI: 31.8 µM
RPMI-8226 leukemia
  GI50: 11.6 µM
  TGI: 31.4 µM
LOX IMVI melanoma
  GI50: 8.1 µM
  TGI: 24.8 µM
HS 578T breast
  GI50: 35.2 µM
  TGI: > 100 µM
NCI-H460 lung
  GI50: 31.2 µM
  TGI: > 100 µM
OVCAR-8 ovarian
  GI50: 16.1 µM
  TGI: 42 µM
OVCAR-5 ovarian
  GI50: 24.8 µM
  TGI: 55.3 µM
HCT-15 colon
  GI50: 22.6 µM
  TGI: 45.6 µM
SK-OV-3 ovarian
  GI50: > 100 µM
  TGI: > 100 µM
SR leukemia
  GI50: 4.16 µM
  TGI: 21.8 µM
SF-539 CNS
  GI50: 22.9 µM
  TGI: 45.3 µM
T-47D breast
  GI50: > 100 µM
  TGI: > 100 µM
SNB-19 CNS
  GI50: > 100 µM
  TGI: > 100 µM
OVCAR-3 ovarian
  GI50: 11.6 µM
  TGI: 30 µM
M14 melanoma
  GI50: 25.2 µM
  TGI: 56.5 µM
A549 NSCLC
  GI50: 33.6 µM
  TGI: > 100 µM
786-0 renal
  GI50: 18.9 µM
  TGI: 35.3 µM
NCI-H522 lung
  GI50: 14.6 µM
  TGI: 33 µM
MDA-MB-231 breast
  GI50: 19.8 µM
  TGI: 42.8 µM
NCI/ADR-RES ovarian
  GI50: 20.6 µM
  TGI: 44.1 µM
MDA-MB-435
  GI50: 26 µM
  TGI: 62.4 µM
SN12C renal
  GI50: 18.3 µM
  TGI: 40.7 µM
K-562 leukemia
  GI50: 15.9 µM
  TGI: 39.6 µM
